The record followed here is ChEMBL document CHEMBL2331359, “Ceramicines from Chisocheton ceramicus as lipid-droplets accumulation inhibitors” (Bioorg Med Chem Lett, 2013).

Data set [1] is described as follows: Selectivity index, ratio of CC50 for mouse MC3T3-G2/PA6 cells to IC50 for inhibition of lipid droplet accumulation in mouse MC3T3-G2/PA6 cells. Type of data set: functional.
Data set [2] in a line: Cytotoxicity against mouse MC3T3-G2/PA6 cells assessed as cell viability by MTT assay. The format is cell-based. On the technique in general: Formazan colour is commonly taken as a measure of viable cells.
Data set [3] can be described thus: Antiadipogenic activity in mouse MC3T3-G2/PA6 cells assessed as inhibition of lipid droplet accumulation after 6 days. The format is functional, cell-based. Conditions: MC3T3-G2/PA6, 144 h.

A word on the CC50: it is the concentration that lowers cell viability or growth by half. As usually defined, the IC50 is the concentration that gives 50% inhibition.

For `CCO[C@@H]1[C@@H]2OC[C@]3(C)C=CC(=O)[C@](C)([C@H]4CC[C@]5(C)C(=CC[C@H]5c5ccoc5)[C@@]41C)[C@@H]23`, in data set [1], the “Ratio CC50/IC50” value is recorded as 2.7. Besides, in data set [2], the cytotoxic concentration (CC50) amounted to 20.6 µM. Further, the IC50 in data set [3] came to 7.7 µM.

Turning to `COCO[C@@H]1[C@@H]2OC[C@]3(C)C=CC(=O)[C@](C)([C@H]4CC[C@]5(C)C(=CC[C@H]5c5ccoc5)[C@@]41C)[C@@H]23`, the “Ratio CC50/IC50” value in data set [1] is 2.3. Moreover, in data set [2], the half-maximal cytotoxic concentration (CC50) stood at 19.7 µM. The concentration for half-maximal inhibition (IC50) in data set [3] came to 8.5 µM.

Take `CC(=O)O[C@@H]1[C@@H]2OC[C@]3(C)C=CC(=O)[C@](C)([C@H]4CC[C@]5(C)C(=CC[C@H]5c5ccoc5)[C@@]41C)[C@@H]23`: in data set [1], the “Ratio CC50/IC50” value is on record as 3. The CC50 in data set [2] stood at 26.2 µM. Besides, the IC50 in data set [3] worked out at 8.8 µM.

Consider `C[C@]12C3=CC[C@@H](c4ccoc4)[C@]3(C)CC[C@@H]1[C@@]1(C)C(=O)C=C[C@@]3(C)CO[C@@H]([C@H]2OC(=O)C(F)(F)F)[C@H]13`, for which the “Ratio CC50/IC50” value in data set [1] came out at 1.9. For the same molecule, the CC50 in data set [2] was 13.7 µM. Further, the IC50 in data set [3] is 7.3 µM.

Regarding `C[C@]12C3=CC[C@@H](c4ccoc4)[C@]3(C)CC[C@@H]1[C@@]1(C)C(=O)C=C[C@@]3(C)CO[C@@H]([C@H]2OC(=O)c2ccccc2)[C@H]13`, the CC50 in data set [2] was above 50 µM. The IC50 in data set [3] was above 50 µM.

As for `C[C@]12C3=CC[C@@H](c4ccoc4)[C@]3(C)CC[C@@H]1[C@@]1(C)C(=O)C=C[C@@]3(C)CO[C@@H]([C@H]2OC(=O)c2ccncc2)[C@H]13`, in data set [1], the “Ratio CC50/IC50” value was found to be 0.9. Also, the CC50 in data set [2] worked out at 17.2 µM. Besides, in data set [3], the 50% inhibitory concentration (IC50) turned out to be 18.7 µM.

Take `C[C@]12CCC(=O)[C@]3(C)[C@H]4CC[C@]5(C)C(=CCC5C5CCOC5)[C@]4(C)[C@H](O)[C@H](OC1)[C@@H]23` (stereo partly specified): the CC50 in data set [2] is above 50 µM. Also, in data set [3], the IC50 was above 50 µM.

As for `C[C@@]12C(=O)C=C[C@@]3(C)COC(=C[C@@]4(C)C5=CC[C@@H](c6ccoc6)[C@]5(C)CC[C@H]14)[C@H]23`, the “Ratio CC50/IC50” value in data set [1] was above 1.7. Further, the CC50 in data set [2] is above 50 µM. For the same molecule, in data set [3], the IC50 turned out to be 29.5 µM.

On to `C[C@@]12CCC(O)[C@@]3(C)[C@H]1[C@@H](OC2)[C@@H](O)[C@@]1(C)C2=CC[C@@H](c4ccoc4)[C@]2(C)CC[C@@H]13` (stereo partly specified), for which, in data set [1], the “Ratio CC50/IC50” value is recorded as above 2.4. In addition, the half-maximal cytotoxic concentration (CC50) in data set [2] is above 50 µM. In addition, the IC50 in data set [3] came out at 20.8 µM.

In the case of `CC(=O)O[C@H]1[C@@H](O)[C@@]2(C)C3=CC[C@@H](c4ccoc4)[C@]3(C)CC[C@@H]2[C@@]2(C)C(=O)[C@H]3O[C@H]3[C@]3(CO3)[C@H]12` [CERAMICINE E], the “Ratio CC50/IC50” value in data set [1] came to 1.1. Besides, the CC50 in data set [2] was found to be 48.4 µM. Moreover, the IC50 in data set [3] was 44.1 µM.

For `C[C@@]1(C=O)C=CC(=O)[C@]2(C)[C@H]3CC[C@]4(C)C(=CC[C@H]4c4ccoc4)[C@]3(C)[C@H](O)[C@H](O)[C@@H]12` [CERAMICINE F], the “Ratio CC50/IC50” value in data set [1] is reported as 1.1. In addition, the CC50 in data set [2] came out at 25 µM. In data set [3], the IC50 was found to be 22.4 µM.

`COC(=O)[C@]1(C)C=CC(=O)[C@]2(C)[C@H]3CC[C@]4(C)C(=CC[C@H]4c4ccoc4)[C@]3(C)[C@H](O)[C@H](O)[C@H]21` [CERAMICINE G]: in data set [1], the “Ratio CC50/IC50” value stood at 1.9. In addition, the CC50 in data set [2] was 72.9 µM. Also, the IC50 in data set [3] amounted to 38.4 µM.

For `C/C=C(\C)C(=O)O[C@H]1C[C@H]2[C@](C)(C3=CC[C@@H](c4ccoc4)[C@@]31C)[C@H](O)[C@@H]1OC[C@]3(C)C=CC(=O)[C@@]2(C)[C@@H]13` [CERAMICINE H], the CC50 in data set [2] was above 50 µM. For the same molecule, the IC50 in data set [3] is above 50 µM.

Take `CC(=O)O[C@H]1C[C@H]2[C@](C)(C3=CC[C@@H](c4ccoc4)[C@@]31C)[C@H](O)[C@@H]1OC[C@]3(C)C=CC(=O)[C@@]2(C)[C@@H]13` [CERAMICINE I]: the “Ratio CC50/IC50” value in data set [1] is reported as above 1.2. The CC50 in data set [2] was above 50 µM. For the same molecule, the half-inhibitory concentration (IC50) in data set [3] stood at 41 µM.

Consider `C[C@@]12CC[C@@H]3[C@@]4(C)C(=O)C=C[C@@]5(C)CO[C@@H]([C@@H](O)[C@@]3(C)[C@@H]1C(=O)C[C@H]2c1ccoc1)[C@H]45` [CERAMICINE J], for which, in data set [2], the CC50 was above 50 µM. The IC50 in data set [3] was above 50 µM.

Consider `CC(=O)O[C@H]1C=CC(=O)[C@@]2(C)[C@H]1[C@@H](O)[C@@H](O)[C@@]1(C)C3=CC[C@@H](c4ccoc4)[C@]3(C)CC[C@H]21` [CERAMICINE K], for which, in data set [2], the CC50 is above 50 µM. The IC50 in data set [3] is above 50 µM.

For `C[C@]12C3=CC[C@@H](c4ccoc4)[C@]3(C)CC[C@@H]1[C@@]1(C)C(=O)C=C[C@@](C)(O)[C@@H]1[C@@H](O)[C@H]2O` [CERAMICINE L], in data set [2], the CC50 is above 50 µM. Besides, the IC50 in data set [3] was above 50 µM.

With `CC(=O)O[C@@H]1[C@H]2[C@@H](O)C=CC(=O)[C@]2(C)[C@H]2CC[C@]3(C)C(=CC[C@H]3c3ccoc3)[C@]2(C)[C@@H]1O` [CERAMICINES A], the “Ratio CC50/IC50” value in data set [1] turned out to be 5. Further, in data set [2], the half-maximal cytotoxic concentration (CC50) came out at 30.7 µM. Also, the 50% inhibitory concentration (IC50) in data set [3] turned out to be 6.2 µM.

`C[C@]12C3=CC[C@@H](c4ccoc4)[C@]3(C)CC[C@@H]1[C@@]1(C)C(=O)C=C[C@@]3(C)CO[C@@H]([C@H]2O)[C@H]13` [CERAMICINES B]: the “Ratio CC50/IC50” value in data set [1] came to 8.8. Moreover, the CC50 in data set [2] turned out to be 15.9 µM. In addition, the IC50 in data set [3] was 1.8 µM.

On to `C=C(C)C(=O)O[C@H]1C[C@H]2[C@](C)(C3=CC[C@@H](c4ccoc4)[C@@]31C)[C@H](O)[C@@H]1OC[C@]3(C)C=CC(=O)[C@@]2(C)[C@@H]13` [CERAMICINES C], for which the “Ratio CC50/IC50” value in data set [1] was determined as 1.2. Further, the CC50 in data set [2] was determined as 21.9 µM. In data set [3], the IC50 is 19.1 µM.

For `C[C@]12C3=CC[C@@H](C4=CCOC4=O)[C@]3(C)CC[C@@H]1[C@@]1(C)C(=O)C=C[C@@]3(C)CO[C@@H]([C@H]2O)[C@H]13` [CERAMICINES D], the CC50 in data set [2] is above 50 µM. Also, the IC50 in data set [3] was above 50 µM.
